Measured values published in patent US20210156844A1, “TMEM16A Modulation for Diagnostic or Therapeutic Use in Pulmonary Hypertension (PH)” (Bayer Aktiengesellschaft, priority 2017, published 2021).

Key:
[1] = test system: monocrotaline (MCT)-treated rats; assay: Acute hemodynamic effects of benzbromarone in monocrotaline (MCT)-treated rats; format: in vivo, rat; details: single i.v. bolus of 300 μM
Method: Male Sprague-Dawley rats (body weight: approx. 250 g, Charles River) received a single subcutaneous injection of monocrotaline (MCT, 60 mg/kg, n=16) or vehicle (control group, n=8). Since significant RVSP increase and PA muscularization had been detected as early as 12 days after the injection of MCT58, two weeks after monocrotaline treatment rats were randomly ordered into two groups. Subcutaneous slow-release pellets (Innovative Research of America) that contained either benzbromarone (MCT+BBR, n=8) or vehicle (MCT+Veh, n=8) were implanted. Four weeks after monocrotaline treatment all rats were subjected to echocardiography and in vivo hemodynamic measurements, thereafter they were sacrificed for organ collection. In rats, in vivo hemodynamic measurements were conducted as described above for the mice, with the exception that for the right ventricular and the systolic blood pressures, 2 F Millar Catheters (SPR-513 and SPR-320, respectively) were used. The above described control and MCT+Veh groups were included in this study. Benzbromarone was injected into the left jugular vein as a single bolus ([…], i.v. in 100 μl saline) and pressures were monitored until a maximum effect was observed (approx. 10 minutes).

[2] = test system: monocrotaline treated rats; assay: Monocrotaline treated rats, chronic treatment with slow-release pellets; format: in vivo, rat
Method: Male Sprague-Dawley rats (body weight: approx. 250 g, Charles River) received a single subcutaneous injection of monocrotaline (MCT, 60 mg/kg, n=16) or vehicle (control group, n=8). Since significant RVSP increase and PA muscularization had been detected as early as 12 days after the injection of MCT58, two weeks after monocrotaline treatment rats were randomly ordered into two groups. Subcutaneous slow-release pellets (Innovative Research of America) that contained either benzbromarone (MCT+BBR, n=8) or vehicle (MCT+Veh, n=8) were implanted. Four weeks after monocrotaline treatment all rats were subjected to echocardiography and in vivo hemodynamic measurements, thereafter they were sacrificed for organ collection.
Echocardiographic measurements were performed using a Vevo 770 High Resolution Imaging System with a 30 MHz RMV-707B scan head (VisualSonics, Toronto, Canada) as previously reported (Egemnazarov, B, et al., J. Am. Soc. Echocardiogr. (2015) 28, 828-843). Briefly, animals were mounted on a heated pad and kept under anaesthesia with isoflurane 0.8-1.2%. Chest hair was depilated and a layer of sonographic coupling gel was applied to the thorax. RV internal diameter (RVID) and free wall thickness (RVFW) from the left parasternal long axis view were measured in M-mode and 2-D modalities. RV outflow tract was visualized from the parasternal short axis view at the level of the aortic valve. From this view, pulse wave (PW) Doppler flow recordings of the pulmonary artery were obtained with the sample volume positioned at the tip of the pulmonary valve leaflets. Here, peak velocity, acceleration time (PAAT), and velocity-time integral (VTI) were measured. For every parameter, measurements were done for 4-5 cardiac cycles and results were averaged. Cardiac output was calculated as CO (mL/min)=(7.85×[RV outflow tract]2×pulmonary valve velocity-time integral×heart rate)/1,000. Cardiac index (CI) was obtained by normalizing cardiac output to body weight.
In rats, in vivo hemodynamic measurements were conducted as described above for the mice, with the exception that for the right ventricular and the systolic blood pressures, 2 F Millar Catheters (SPR-513 and SPR-320, respectively) were used.
At the end of the hemodynamic measurements, animals were exsanguinated and the heart and lungs were isolated. The right ventricle (RV) was dissected from the left ventricle+septum (LV+S) and both of them were weighed. Right ventricular hypertrophy was assessed by calculating the Fulton index, defined as RV weight/(LV+S weight).
Paraffin-embedded mouse and rat lung tissues were cut to 2 μm thin sections. Double immunohistochemical staining and quantification of the non-muscularized and muscularized arteries were made as previously described (Crnkovic, S, et al., Respir. Physiol. Neurobiol. (2011) 179, 342-345). Immunostained slides were scanned with an Olympus BX61VS microscope using the OlyVIA software (Olympus Austria GmbH, Vienna, Austria). Vessel remodeling in lung sections was quantified using semi-automated image analysis software (Visiopharm, Hoersholm, Denmark). Throughout the analysis, all samples were identified with number codes to blind the operator for the experimental group. The percentage of non-muscularized and muscularized pulmonary arteries, relative to the total number of pulmonary arteries, was calculated.
Serial sections from the same lungs were used to determine cell proliferation in the PA wall, as described by Zabini et al. (Zabini, D. et al., J. Cell. Mol. Med. (2015) 19, 1151-1161). Lung sections were labeled using a primary antibody against the proliferation marker PCNA (sc-7907, Santa Cruz). Immunostained slides were scanned with an Olympus BX61VS microscope equipped with the OlyVIA software (Olympus Austria GmbH, Vienna, Austria). Negative controls were performed with the omission of the primary antibody.

[3] = compared to the MCT+Veh group, week 4
[4] = slow-release pellet from two weeks after MCT, echocardiography at week 4

CCc1oc2ccccc2c1C(=O)c1cc(Br)c(O)c(Br)c1 [benzbromarone, (2-Ethyl-3-benzofuranyl)-(3,5-dibrom-4-hydroxyphenyl)ketone]
RVSP ([1]; MCT-treated rats): significant decrease
RVSP in the control animals ([1]; vehicle-treated control rats): without affecting
PCNA positive nuclei in the medial layer of the PA ([2]; MCT treated rats, lung sections (not shown)): reduced number
number of fully muscularized arteries ([2]; MCT+BBR vs MCT+Veh): markedly reduced
number of non-muscularized arteries ([2]; MCT+BBR vs MCT+Veh): increased
RV hypertrophy (Fulton-index) [2, 3]: significantly decreased
RVSP [2, 3]: significantly decreased
MCT-induced decrease in cardiac index (CI) [2, 4]: completely reversed
MCT-induced decrease in pulmonary artery acceleration time (PAAT) [2, 4]: completely reversed
MCT-induced increase in right ventricular free wall thickness (RVFW Thickness) [2, 4]: completely reversed
